Tests used:
Assay type in all cases: in vivo
[1] = test system: foxtail, giant (Setaria faberii); test: Test A postemergence, giant foxtail; conditions: 0 to 100 scale
In short: (§1)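 Greenhouse pot test, loam/sand soil. Pre: directed soil spray at planting; post: foliar spray at 1–2 leaf stage (2–10 cm). Chemical in non-phytotoxic solvent + surfactant. Visual rating ~10 d, 0 = no effect, 100 = complete control.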

[2] = test system: foxtail, giant (Setaria faberii); test: Test A preemergence, giant foxtail; conditions: 0 to 100 scale; for Foxtail, Giant plant response rating: 0 is no effect, 100 is complete control
In short: as §1

[3] = test system: ragweed (common ragweed, Ambrosia elatior); test: Test A preemergence, ragweed; conditions: 0 to 100 scale; for Ragweed plant response rating: 0 is no effect, 100 is complete control
In short: as §1

[4] = test system: barnyardgrass (Echinochloa crus-galli); test: Test A postemergence, barnyardgrass; conditions: 0 to 100 scale
In short: as §1

rice (Oryza sativa) = test: Test B flooded paddy test, rice; conditions: Flood, 250 g ai/ha, applied to paddy water, 2-leaf stage, visual evaluation after 13 to 15 d
In short: (§2)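 Rating: 0 = no effect, 100 = complete control, visual, relative to untreated plants. Conditions: 2-leaf stage, 3 cm flood kept constant, compound put directly into water, 13–15 d greenhouse.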

[5] = test system: barnyardgrass (Echinochloa crus-galli); test: Test B flooded paddy test, barnyardgrass; conditions: Flood, 250 g ai/ha, applied to paddy water, 2-leaf stage, visual evaluation after 13 to 15 d
In short: as §2

[6] = test system: wheat (Triticum aestivum); test: Test A postemergence, wheat; conditions: 0 to 100 scale
In short: as §1

[7] = test system: ryegrass, Italian (Lolium multiflorum); test: Test A preemergence, Italian ryegrass; conditions: 0 to 100 scale; for Ryegrass, Italian plant response rating: 0 is no effect, 100 is complete control
In short: as §1

kochia (Kochia scoparia) [8] = test: Test A postemergence, kochia; conditions: 0 to 100 scale
In short: as §1

corn (Zea mays) = test: Test A postemergence, corn; conditions: 0 to 100 scale
In short: as §1

[9] = test system: barnyardgrass (Echinochloa crus-galli); test: Test A preemergence, barnyardgrass; conditions: 0 to 100 scale; for Barnyardgrass plant response rating: 0 is no effect, 100 is complete control
In short: as §1

[10] = test system: ryegrass, Italian (Lolium multiflorum); test: Test A postemergence, Italian ryegrass; conditions: 0 to 100 scale
In short: as §1

[11] = test system: ducksalad (Heteranthera limosa); test: Test B flooded paddy test, ducksalad; conditions: Flood, 250 g ai/ha, applied to paddy water, 2-leaf stage, visual evaluation after 13 to 15 d
In short: as §2

[12] = test system: sedge, umbrella (small-flower umbrella sedge, Cyperus difformis); test: Test B flooded paddy test, umbrella sedge; conditions: Flood, 250 g ai/ha, applied to paddy water, 2-leaf stage, visual evaluation after 13 to 15 d
In short: as §2

[13] = test system: blackgrass (Alopecurus myosuroides); test: Test A postemergence, blackgrass; conditions: 0 to 100 scale
In short: as §1

[14] = test system: pigweed (Amaranthus retroflexus); test: Test A preemergence, pigweed; conditions: 0 to 100 scale; for Pigweed plant response rating: 0 is no effect, 100 is complete control
In short: as §1

kochia (Kochia scoparia) [15] = test: Test A preemergence, kochia; conditions: 0 to 100 scale; for Kochia plant response rating: 0 is no effect, 100 is complete control
In short: as §1

[16] = test system: galium (catchweed bedstraw, Galium aparine); test: Test A postemergence, galium; conditions: 0 to 100 scale
In short: as §1

[17] = test system: ragweed (common ragweed, Ambrosia elatior); test: Test A postemergence, ragweed; conditions: 0 to 100 scale
In short: as §1

[18] = test system: pigweed (Amaranthus retroflexus); test: Test A postemergence, pigweed; conditions: 0 to 100 scale
In short: as §1

[19] = 125 g ai/ha, 0 no effect, 100 complete control
[20] = 500 g ai/ha, 0 no effect, 100 complete control

C[C@@H](Nc1ncc(C(F)(F)F)c(N)n1)c1cccc2ccccc12 [Compound 3]
Plant response rating, Foxtail, Giant ([1]; 125 g ai/ha): 0
Plant response rating, Foxtail, Giant ([1]; 500 g ai/ha): 40
Plant response rating, Foxtail, Giant ([2]; 125 g ai/ha): 10
Plant response rating, Foxtail, Giant ([2]; 500 g ai/ha): 90
Plant response rating, Ragweed ([3]; 125 g ai/ha): 100
Plant response rating, Ragweed ([3]; 500 g ai/ha): 100
Plant response rating, Barnyardgrass ([4]; 125 g ai/ha): 20
Plant response rating, Barnyardgrass ([4]; 500 g ai/ha): 80
Plant response rating, Rice (0 to 100 scale, 0 is no effect, 100 is complete control) (rice (Oryza sativa)): 0
Plant response rating, Barnyardgrass (0 to 100 scale, 0 is no effect, 100 is complete control) [5]: 0
Plant response rating, Wheat ([6]; 125 g ai/ha): 20
Plant response rating, Wheat ([6]; 500 g ai/ha): 0
Plant response rating, Ryegrass, Italian ([7]; 125 g ai/ha): 20
Plant response rating, Ryegrass, Italian ([7]; 500 g ai/ha): 90
Plant response rating, Kochia (kochia (Kochia scoparia) [8]; 125 g ai/ha): 30
Plant response rating, Kochia (kochia (Kochia scoparia) [8]; 500 g ai/ha): 90
Plant response rating, Corn (corn (Zea mays); 125 g ai/ha): 0
Plant response rating, Corn (corn (Zea mays); 500 g ai/ha): 10
Plant response rating, Barnyardgrass ([9]; 125 g ai/ha): 10
Plant response rating, Barnyardgrass ([9]; 500 g ai/ha): 100
Plant response rating, Ryegrass, Italian ([10]; 125 g ai/ha): 0
Plant response rating, Ryegrass, Italian ([10]; 500 g ai/ha): 0
Plant response rating, Ducksalad (0 to 100 scale, 0 is no effect, 100 is complete control) [11]: 30
Plant response rating, Sedge, Umbrella (0 to 100 scale, 0 is no effect, 100 is complete control) [12]: 65
Plant response rating, Blackgrass ([13]; 125 g ai/ha): 0
Plant response rating, Blackgrass ([13]; 500 g ai/ha): 30
Plant response rating, Pigweed ([14]; 125 g ai/ha): 100
Plant response rating, Pigweed ([14]; 500 g ai/ha): 100
Plant response rating, Kochia (kochia (Kochia scoparia) [15]; 125 g ai/ha): 30
Plant response rating, Kochia (kochia (Kochia scoparia) [15]; 500 g ai/ha): 100
Plant response rating, Galium ([16]; 125 g ai/ha): 30
Plant response rating, Galium ([16]; 500 g ai/ha): 90
Plant response rating, Ragweed ([17]; 125 g ai/ha): 30
Plant response rating, Ragweed ([17]; 500 g ai/ha): 90
Plant response rating, Pigweed ([18]; 125 g ai/ha): 90
Plant response rating, Pigweed ([18]; 500 g ai/ha): 100

CC(Nc1ncc(C(F)(F)F)c(N)n1)c1coc2cccc(F)c12 (racemic) [Compound 96]
Plant response rating, Foxtail, Giant [1, 19]: 0
Plant response rating, Foxtail, Giant [1, 20]: 60
Foxtail, Giant plant response rating ([2]; 125 g ai/ha): 20
Foxtail, Giant plant response rating ([2]; 500 g ai/ha): 80
Ragweed plant response rating ([3]; 125 g ai/ha): 50
Ragweed plant response rating ([3]; 500 g ai/ha): 70
Plant response rating, Barnyardgrass [4, 19]: 30
Plant response rating, Barnyardgrass [4, 20]: 40
Plant response rating, Rice (0 to 100 scale, 0 is no effect, 100 is complete control) (rice (Oryza sativa)): 0
Plant response rating, Barnyardgrass (0 to 100 scale, 0 is no effect, 100 is complete control) [5]: 0
Plant response rating, Wheat [6, 19]: 0
Plant response rating, Wheat [6, 20]: 0
Ryegrass, Italian plant response rating ([7]; 125 g ai/ha): 0
Ryegrass, Italian plant response rating ([7]; 500 g ai/ha): 50
Plant response rating, Kochia (kochia (Kochia scoparia) [8]; [19]): 20
Plant response rating, Kochia (kochia (Kochia scoparia) [8]; [20]): 90
Plant response rating, Corn (corn (Zea mays); [19]): 40
Plant response rating, Corn (corn (Zea mays); [20]): 60
Barnyardgrass plant response rating ([9]; 125 g ai/ha): 0
Barnyardgrass plant response rating ([9]; 500 g ai/ha): 90
Plant response rating, Ryegrass, Italian [10, 19]: 0
Plant response rating, Ryegrass, Italian [10, 20]: 0
Plant response rating, Ducksalad (0 to 100 scale, 0 is no effect, 100 is complete control) [11]: 0
Plant response rating, Sedge, Umbrella (0 to 100 scale, 0 is no effect, 100 is complete control) [12]: 0
Plant response rating, Blackgrass [13, 19]: 0
Plant response rating, Blackgrass [13, 20]: 30
Pigweed plant response rating ([14]; 125 g ai/ha): 70
Pigweed plant response rating ([14]; 500 g ai/ha): 90
Kochia plant response rating (kochia (Kochia scoparia) [15]; 125 g ai/ha): 0
Kochia plant response rating (kochia (Kochia scoparia) [15]; 500 g ai/ha): 0
Plant response rating, Galium [16, 19]: 60
Plant response rating, Galium [16, 20]: 80
Plant response rating, Ragweed [17, 19]: 20
Plant response rating, Ragweed [17, 20]: 80
Plant response rating, Pigweed [18, 19]: 60
Plant response rating, Pigweed [18, 20]: 90

Reference: patent publication US20220119354A1, “DIAMINO-SUBSTITUTED PYRIDINES AND PYRIMIDINES AS HERBICIDES” (FMC Corporation, priority 2019, published 2022)
